Patent US6864363B2 (priority 2000, dated 2005)
“And” between values parts separate entries of the source, which are not always exact repeats. Equal entries are not always repeated. Numbered stars: 1 amine (or outer) side, 2 acyl side, 3 side chain; on linkers, the order of the positions; unused ones are H or OH. Peptide text beside a SMILES is read from it. * marks the point of attachment. pNA = O=[N+]([O-])c1ccc(N*)cc1; Suc = O=C(CCC(=O)[*:2])[*:1]; Cbz = O=C(OCc1ccccc1)*

These molecules were tested on P. gingivalis DPP-7 (assay: not given). Settings: not given.
Assay type: biochemical, Porphyromonas gingivalis
For Triton X-100, the “% of residual activity” value was 144% and 103% and 94% and the “inactivation of / influence on DPP-7 activity (in words)” value was “not sensitive to inactivation”. With `C[C@H](N)C(=O)NCC(=O)O` [Ala-Gly] (H-Ala-Gly-OH) the “% of residual activity” value was 96%. In the case of `O=C(O)CN(CCN(CC(=O)O)CC(=O)O)CC(=O)O` [EDTA], the “% of residual activity” value is reported as 90% and the “inactivation of / influence on DPP-7 activity (in words)” value is reported as “did not influence its activity”.

Each molecule was assayed on P. gingivalis DPP-7 (assay: Kinetic analysis of p-nitroanilide substrate cleavage by DPP-7). Settings: 0.2 M HEPES, pH 7.8, 37° C.
Assay type: biochemical, Porphyromonas gingivalis
Description: Kinetic Analysis—Routinely, the dipeptidylpeptidase amidolytic activity was measured with H-Ala-Phe-pNA (1 mM) in 0.2 M HEPES, pH 7.8 at 37° C. The reaction was followed for specific time intervals in a thermostated ELISA reader (SpectraMax, Applied Biosystem) and the release of p-nitroaniline was monitored at 405 nm. Other p-nitroanilide substrates were used in the same manner. For inhibition studies, the enzyme was first preincubated with an inhibitor for 15 minutes at 37° C., substrate added, and residual activity recorded. The initial steady-state velocity (v0) was determined by continuous assay for the range of substrate concentrations (100 nM to 1 mM). Km and Vmax were determined by hyperbolic regression of the kinetic data using the software package Hyper Version 1.02 obtained from Dr. J. S. Easterby (University of Liverpool, UK).
Substrate Specificity—Among several chromogenic substrates tested, only those with an aliphatic or an aromatic side chain residues in the second, penultimate position were rapidly hydrolyzed by DPP-7 (Table 2).
In the case of `C[C@H](N)C(=O)N[C@@H](Cc1ccccc1)C(=O)Nc1ccc([N+](=O)[O-])cc1` [H-Ala-Phe-pNA], the Km is reported as 441 µM and the Vmax is reported as 170.06. `CC(N)C(=O)NC(C)C(=O)Nc1ccc([N+](=O)[O-])cc1.Cl` (stereo not drawn) [H-Ala-Ala-pNA] (H-Ala-Ala-pNA; configuration not given here) was tested, and the Km was 313 µM and the Vmax was 129.65. In the case of `NCC(=O)NC(Cc1ccccc1)C(=O)Nc1ccc([N+](=O)[O-])cc1` (stereo not drawn) [H-Gly-Phe-pNA], the Km is reported as 256 µM and the Vmax is reported as 54.54.

Same assay, conditions: p-nitroanilide substrates
`NCC(=O)NCC(=O)Nc1ccc([N+](=O)[O-])cc1` [H-Gly-Gly-pNA] (H-Gly-Gly-pNA) was tested, and the “hydrolysis of chromogenic substrate by DPP-7” value (“hydrolysis” below) was “none of these was hydrolysed”. With `O=C(O)CC[C@H](NC(=O)OCc1ccccc1)C(=O)N[C@@H](CCC(=O)O)C(=O)Nc1ccc([N+](=O)[O-])cc1` [Z-Glu-Glu-pNA] (Cbz-Glu-Glu-pNA) the “hydrolysis” value was “none of these was hydrolysed”. `NCC(=O)N[C@@H](CCC(=O)O)C(=O)Nc1ccc([N+](=O)[O-])cc1` [H-Gly-Glu-pNA] (H-Gly-Glu-pNA) was tested, and the “hydrolysis” value was “none of these was hydrolysed”. For `NC(N)=NCCC[C@H](NC(=O)[C@H](Cc1ccccc1)NC(=O)OCc1ccccc1)C(=O)Nc1ccc([N+](=O)[O-])cc1` [Z-Phe-Arg-pNA] (Cbz-Phe-Arg-pNA), the “hydrolysis” value was “none of these was hydrolysed”. In the case of `CC(C)C[C@H](N)C(=O)Nc1ccc([N+](=O)[O-])cc1` [H-Leu-pNA], the “hydrolysis” value is reported as “none of these was hydrolysed”. With `C[C@H](N)C(=O)NCC(=O)Nc1ccc([N+](=O)[O-])cc1` [H-Ala-Gly-pNA] (H-Ala-Gly-pNA) the “hydrolysis” value was “none of these was hydrolysed”. For `N=C(N)NCCC[C@H](NC(=O)OCc1ccccc1)C(=O)Nc1ccc([N+](=O)[O-])cc1` [Z-Arg-pNA], the “hydrolysis” value was “none of these was hydrolysed”. `CC(C)C[C@H](NC(=O)[C@@H]1CCCN1C(=O)[C@H](C)NC(=O)[C@H](C)NC(=O)CCC(=O)O)C(=O)Nc1ccc([N+](=O)[O-])cc1` [N-suc-Ala-Ala-Pro-Leu-pNA] (Suc-AAPL-pNA) was tested, and the “hydrolysis” value was “none of these was hydrolysed”. With `CC(C)[C@H](NC(=O)[C@H](C)NC(=O)[C@H](C)NC(=O)CCC(=O)O)C(=O)N[C@@H](C)C(=O)Nc1ccc([N+](=O)[O-])cc1` [N-suc-Ala-Ala-Val-Ala-pNA] (Suc-AAVA-pNA) the “hydrolysis” value was “none of these was hydrolysed”. `CC(C)C[C@H](NC(=O)OCc1ccccc1)C(=O)N[C@@H](CC(C)C)C(=O)N[C@@H](CCC(=O)O)C(=O)Nc1ccc([N+](=O)[O-])cc1` [Z-Leu-Leu-Glu-pNA] (Cbz-Leu-Leu-Glu-pNA) was tested, and the “hydrolysis” value was “none of these was hydrolysed”. For `C[C@H](NC(=O)OCc1ccccc1)C(=O)N[C@@H](C)C(=O)Nc1ccc([N+](=O)[O-])cc1` [Z-Ala-Ala-pNA] (Cbz-Ala-Ala-pNA), the “hydrolysis” value was “none of these was hydrolysed”. In the case of `N=C(N)NCCC[C@H](NC(=O)[C@H](CCCCN)NC(=O)OCc1ccccc1)C(=O)Nc1ccc([N+](=O)[O-])cc1` [Z-Lys-Arg-pNA] (Cbz-Lys-Arg-pNA), the “hydrolysis” value is reported as “none of these was hydrolysed”. For N-met-Ala-Pro-Val-pNA, the “hydrolysis” value was “none of these was hydrolysed”. `C[C@H](N)C(=O)N1CCC[C@H]1C(=O)Nc1ccc([N+](=O)[O-])cc1` [H-Ala-Pro-pNA] (H-Ala-Pro-pNA) was tested, and the “hydrolysis” value was “none of these was hydrolysed”. In the case of `NCC(=O)N[C@@H](CCCN=C(N)N)C(=O)Nc1ccc([N+](=O)[O-])cc1` [H-Gly-Arg-pNA] (H-Gly-Arg-pNA), the “hydrolysis” value is reported as “none of these was hydrolysed”. `C[C@H](NC(=O)CCC(=O)O)C(=O)N[C@@H](C)C(=O)Nc1ccc([N+](=O)[O-])cc1` [N-suc-Ala-Ala-pNA] (Suc-Ala-Ala-pNA) was tested, and the “hydrolysis” value was “none of these was hydrolysed”. For `N[C@@H](Cc1ccccc1)C(=O)Nc1ccc([N+](=O)[O-])cc1` [H-Phe-pNA], the “hydrolysis” value was “none of these was hydrolysed”. In the case of `C[C@H](N)C(=O)N[C@@H](C)C(=O)N[C@@H](Cc1ccccc1)C(=O)Nc1ccc([N+](=O)[O-])cc1` [H-Ala-Ala-Phe-pNA] (H-Ala-Ala-Phe-pNA), the “hydrolysis” value is reported as “none of these was hydrolysed”. In the case of `CC(C)C[C@H](N)C(=O)N[C@H](C(=O)N[C@@H](CCCNC(=N)N)C(=O)Nc1ccc([N+](=O)[O-])cc1)[C@@H](C)O` [H-Leu-Thr-Arg-pNA] (H-Leu-Thr-Arg-pNA), the “hydrolysis” value is reported as “none of these was hydrolysed”. In the case of `C[C@H](N)C(=O)NCC(=O)N[C@@H](CCCNC(=N)N)C(=O)Nc1ccc([N+](=O)[O-])cc1` [H-Ala-Gly-Arg-pNA] (H-Ala-Gly-Arg-pNA), the “hydrolysis” value is reported as “none of these was hydrolysed”. With `Br.Br.NCCCC[C@H](N)C(=O)Nc1ccc([N+](=O)[O-])cc1` [H-Lys-pNA] the “hydrolysis” value was “none of these was hydrolysed”. In the case of `NCCCC[C@H](NC(=O)OCc1ccccc1)C(=O)Nc1ccc([N+](=O)[O-])cc1` [Z-Lys-pNA], the “hydrolysis” value is reported as “none of these was hydrolysed”. For `CC(C)[C@H](NC(=O)[C@H](Cc1ccccc1)NC(=O)OCc1ccccc1)C(=O)N[C@@H](CCCNC(=N)N)C(=O)Nc1ccc([N+](=O)[O-])cc1` [Z-Phe-Val-Arg-pNA] (Cbz-Phe-Val-Arg-pNA), the “hydrolysis” value was “none of these was hydrolysed”. For `NC(N)=NCCCC(NC(=O)c1ccccc1)C(=O)Nc1ccc([N+](=O)[O-])cc1` (racemic) [Nα-benzoyl-DL-arginine-pNA], the “hydrolysis” value was “none of these was hydrolysed”. In the case of `C[C@H](N)C(=O)Nc1ccc([N+](=O)[O-])cc1` [H-Ala-pNA], the “hydrolysis” value is reported as “none of these was hydrolysed”. With `C[C@H](NC(=O)CCC(=O)O)C(=O)N[C@@H](C)C(=O)N1CCC[C@H]1C(=O)N[C@@H](CCC(=O)O)C(=O)Nc1ccc([N+](=O)[O-])cc1` [N-suc-Ala-Ala-Pro-Glu-pNA] (Suc-AAPE-pNA) the “hydrolysis” value was “none of these was hydrolysed”. `CC[C@H](C)[C@H](N)C(=O)Nc1ccc([N+](=O)[O-])cc1` [H-Ile-pNA] was tested, and the “hydrolysis” value was “none of these was hydrolysed”. For `NCC(=O)Nc1ccc([N+](=O)[O-])cc1` [H-Gly-pNA], the “hydrolysis” value was “none of these was hydrolysed”. For `NCCCC[C@H](NC(=O)CN)C(=O)Nc1ccc([N+](=O)[O-])cc1` [H-Gly-Lys-pNA] (H-Gly-Lys-pNA), the “hydrolysis” value was “none of these was hydrolysed”. `C[C@H](N)C(=O)N[C@@H](Cc1ccccc1)C(=O)N1CCC[C@H]1C(=O)Nc1ccc([N+](=O)[O-])cc1` [H-Ala-Phe-Pro-pNA] (H-Ala-Phe-Pro-pNA) was tested, and the “hydrolysis” value was “none of these was hydrolysed”. With `NCCCC[C@H](NC(=O)[C@H](Cc1ccc(O)cc1)NC(=O)OCc1ccccc1)C(=O)N[C@@H](CCCN=C(N)N)C(=O)Nc1ccc([N+](=O)[O-])cc1` [Z-Tyr-Lys-Arg-pNA] (Cbz-Tyr-Lys-Arg-pNA) the “hydrolysis” value was “none of these was hydrolysed”.
